Source: the supplement of paper PMC10307832

Columns and labels:
Assay in all cases: relative viability (nuclei count vs DMSO), 5 days (fraction); higher = more cells survive
Trametinib + Lapatinib = compound: CC(=O)Nc1cccc(-n2c(=O)n(C3CC3)c(=O)c3c(Nc4ccc(I)cc4F)n(C)c(=O)c(C)c32)c1 [Trametinib] + CS(=O)(=O)CCNCc1ccc(-c2ccc3ncnc(Nc4ccc(OCc5cccc(F)c5)c(Cl)c4)c3c2)o1 [Lapatinib] (partner 2 µM)
Method in brief: (§1)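 Nuclei were stained with Hoechst during a one-step fixation (final 0.05% Triton X-100, 1% formaldehyde, 1 ug/ml Hoechst) carried out 5 days after dosing, then counted on 4× images. The cells, lung cancer lines in 1536-well plates, had been dosed by pin tool the day after seeding with one drug alone or a fixed anchor-drug dose plus five library-drug doses (not always all listed) in √10 steps. Relative viability is the nuclei count in treated wells divided by that in vehicle wells, and each value is the median of duplicate plates.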

[1] = compound: CN1C=C(C2=CC=CC=C21)/C=C\3/C4=C(C=CC=N4)NC3=O + CC(=O)Nc1cccc(-n2c(=O)n(C3CC3)c(=O)c3c(Nc4ccc(I)cc4F)n(C)c(=O)c(C)c32)c1 [Trametinib] (partner 0.02 µM)
Method in brief: as §1

[2] = compound: CN1C=C(C2=CC=CC=C21)/C=C\3/C4=C(C=CC=N4)NC3=O + O=C(c1cc(Cc2n[nH]c(=O)c3ccccc23)ccc1F)N1CCN(C(=O)C2CC2)CC1 [Olaparib] (partner 8 µM)
Method in brief: as §1

[3] = compound: CN1C=C(C2=CC=CC=C21)/C=C\3/C4=C(C=CC=N4)NC3=O + Cc1nc(Nc2ncc(C(=O)Nc3c(C)cccc3Cl)s2)cc(N2CCN(CCO)CC2)n1 [Dasatinib] (partner 0.075 µM)
Method in brief: as §1

Cell Line	relative viability (Trametinib + Lapatinib; first compound 0.0025 µM)	relative viability (Trametinib + Lapatinib; first compound 0.007906 µM)	relative viability (Trametinib + Lapatinib; first compound 0.025 µM)	relative viability (Trametinib + Lapatinib; first compound 0.07906 µM)	relative viability (Trametinib + Lapatinib; first compound 0.25 µM)	relative viability ([1]; first compound 0.02 µM)	relative viability ([1]; first compound 0.06325 µM)	relative viability ([1]; first compound 0.2 µM)	relative viability ([1]; first compound 0.6325 µM)	relative viability ([1]; first compound 2 µM)	relative viability ([2]; first compound 0.02 µM)	relative viability ([2]; first compound 0.06325 µM)	relative viability ([2]; first compound 0.2 µM)	relative viability ([2]; first compound 0.6325 µM)	relative viability ([2]; first compound 2 µM)	relative viability ([3]; first compound 0.02 µM)	relative viability ([3]; first compound 0.06325 µM)	relative viability ([3]; first compound 0.2 µM)	relative viability ([3]; first compound 0.6325 µM)	relative viability ([3]; first compound 2 µM)
201T	1.06	0.922	0.93	0.879	0.928	0.758	0.727	0.754	0.797	0.763	0.821	0.781	0.868	0.931	0.87	0.587	0.533	0.504	0.531	0.413
A549	0.749	0.667	0.618	0.499	0.0742						0.325	0.352		0.278	0.355					
A-427	1.1	1.05	0.619	0.818	0.678	0.796	0.721		0.708	0.813	0.708	0.606		0.71	0.76	0.696	0.664		0.644	0.86
ABC-1	0.789	1.16	1.18	1.13	1.2						0.976	0.745	0.612	0.826	0.86	0.484	0.424	0.53	0.562	0.56
BEN	0.681	0.651		0.506	0.593	1.05	0.981	1	0.966	1.18	1.01	0.91	0.885	1.14	1.24	0.263	0.275		0.259	0.314
CAL-12T	0.54	0.514	0.47	0.648	0.429	0.32	0.308	0.315	0.325	0.298	0.729	0.587	0.617	0.75	0.625	0.501	0.302	0.347	0.285	0.273
COR-L23	1.04	0.923	0.786	0.788	0.48	0.519	0.575	0.576	0.545	0.606	0.349	0.289	0.274	0.283	0.312	0.551	0.449	0.494	0.51	0.529
COR-L 105	0.37	0.413	0.332	0.381	0.326	0.402	0.462	0.396	0.512	0.506	0.522	0.459	0.478	0.585	0.967	0.306	0.298	0.273	0.34	0.367
Calu-6	0.962	0.779	0.566	0.237	0.165						0.504	0.528	0.569	0.488	0.787					
ChaGo-K-1						0.864	0.917	0.868	0.871	0.871	0.426	0.405	0.414	0.387	0.339	0.477	0.544	0.418	0.587	0.576
EBC-1	0.189	0.199	0.189	0.225	0.213						0.728	0.68	0.623	0.625	0.585					
EKVX	0.177	0.154	0.136	0.155	0.157	0.268			0.233	0.201	0.892			0.8	0.717	0.411	0.427	0.464	0.449	0.358
EMC-BAC-2	0.866	0.872	0.711	0.92	0.626	0.926	0.872	0.892	0.927	0.956	0.354	0.445	0.488	0.418	0.383	0.356	0.323	0.32	0.332	0.407
EPLC-272H	0.911	0.56	0.493	0.609	0.125	0.348	0.263		0.283	0.267	1.16	0.706	0.712		0.682	0.344	0.41	0.237		0.355
H3255	0.246	0.188	0.269	0.201	0.236	0.726		0.57	0.775	0.668	0.64	0.554	0.55	0.606	0.602	0.438	0.349	0.323	0.324	0.322
HARA	0.585	0.583	0.541	0.513	0.509	0.673	0.635		0.605	0.492	0.247	0.747		0.726	0.794	0.313	0.265		0.254	0.244
